Test results taken from ChEMBL document CHEMBL4480391, “Discovery and synthesis of sulfur-containing 6-substituted 5,8-dimethoxy-1,4-naphthoquinone oxime derivatives as new and potential anti-MDR cancer agents” (Eur J Med Chem, 2019).

Experiments:
[1] = Selectivity index, ratio of IC50 for human HSF cells to IC50 for human HCT15 cells; format: toxicity; details: HSF cells versus HCT15 cells, read-out: Ratio IC50
[2] = test system: K562; assay: Cytotoxicity against human K562 cells after 72 hrs by MTT assay; format: functional, cell-based; details: K562, 72 h
[3] = Cytotoxicity against human HSF cells after 72 hrs by MTT assay; format: cell-based
[4] = test system: HCT-15; assay: Cytotoxicity against human HCT15 cells after 72 hrs by MTT assay; format: functional, cell-based; details: HCT-15, 72 h
[5] = test system: MGC-803; assay: Cytotoxicity against human MGC803 cells after 72 hrs by MTT assay; format: functional, cell-based; details: MGC-803, 72 h
[6] = Selectivity ratio of IC50 for human A549 cells to IC50 for human A549/TAX cells; format: functional
[7] = Cytotoxicity against human […] cells after 72 hrs by MTT assay; format: functional, cell-based
[8] = test system: MCF7; assay: Cytotoxicity against human MCF7 cells after 72 hrs by MTT assay; format: functional, cell-based; details: MCF7, 72 h
[9] = Selectivity ratio of IC50 for human […] cells to IC50 for human Bel7402/5-FU cells; format: functional
[10] = test system: A549; assay: Cytotoxicity against human A549 cells after 72 hrs by MTT assay; format: functional, cell-based; details: A549, 72 h
[11] = test system: A549/TR; assay: Cytotoxicity against human A549/TAX cells after 72 hrs by MTT assay; format: functional, cell-based
[12] = test system: NCI/ADR-RES; assay: Cytotoxicity against human MCF7/ADR cells after 72 hrs by MTT assay; format: functional, cell-based
[13] = test system: Bel7402/5-FU; assay: Cytotoxicity against human Bel7402/5-FU cells after 72 hrs by MTT assay; format: functional, cell-based
[14] = Selectivity ratio of IC50 for human MCF7 cells to IC50 for human MCF7/ADR cells; format: functional

Compound | selectivity ratio [1] | IC50 [2] [µM] | IC50 [3] [µM] | IC50 [4] [µM] | IC50 [5] [µM] | Ratio IC50 [6] | IC50 [7] [µM] | IC50 [8] [µM] | Ratio IC50 [9] | IC50 [10] [µM] | IC50 [11] [µM] | IC50 [12] [µM] | IC50 [13] [µM] | Ratio IC50 [14]
CCCCCCC(c1cc(OC)c2c(c1OC)/C(=N/O)C=C/C2=N\O)S(=O)(=O)CCC(C)C (stereo not given) | > 6.82 | 4.25 | > 50 | 7.33 | 15.7 |  |  |  |  |  |  |  |  | 
CCCCCCCCCCC(SCCCCC)c1cc(OC)c2c(c1OC)/C(=N/O)C=C/C2=N\O (stereo not given) | > 7.89 | 7.21 | > 50 | 6.34 | 12.1 |  |  |  |  |  |  |  |  | 
CCCCCCC(SC(=O)c1cc(OC)c(OC)c(OC)c1)c1cc(OC)c2c(c1OC)/C(=N/O)C=C/C2=N\O (stereo not given) | > 22.6 | 1.52 | > 50 | 2.21 | 4.92 |  |  |  |  |  |  |  |  | 
CCCCCCCCCCCCC(SCCC(C)C)c1cc(OC)c2c(c1OC)/C(=N/O)C=C/C2=N\O (stereo not given) | > 3.86 | 10.1 | > 50 | 13 | 17.4 |  |  |  |  |  |  |  |  | 
CCCCCCCCC(SCCC(C)C)c1cc(OC)c2c(c1OC)/C(=N/O)C=C/C2=N\O (stereo not given) | > 92.6 | 0.76 | > 50 | 0.54 | 1.09 | 16 | 2.31 | 33.6 | 3.16 | 18.9 | 1.18 | 14 | 0.73 | 2.41
CCCCCCCCCCC(SCCC(C)C)c1cc(OC)c2c(c1OC)/C(=N/O)C=C/C2=N\O (stereo not given) | > 10.5 | 5.49 | > 50 | 4.75 | 8.91 |  |  |  |  |  |  |  |  | 
CCCCCCCCC(SC(=O)c1cc(OC)c(OC)c(OC)c1)c1cc(OC)c2c(c1OC)/C(=N/O)C=C/C2=N\O (stereo not given) | > 100 | 0.68 | > 50 | 0.5 | 0.91 | 11.5 | 0.56 | 14.8 | 1.81 | 9.28 | 0.81 | 2.47 | 0.31 | 6.01
CCCCCCCCC(SC(=O)c1ccc(C(F)(F)F)cc1)c1cc(OC)c2c(c1OC)/C(=N/O)C=C/C2=N\O (stereo not given) | > 13.1 | 4.45 | > 50 | 3.82 | 6.34 |  |  |  |  |  |  |  |  | 
COc1cccc2c1C(=O)c1c(O)c3c(c(O)c1C2=O)C[C@@](O)(C(=O)CO)C[C@@H]3O[C@H]1C[C@H](N)[C@H](O)[C@H](C)O1.Cl [DOXORUBICIN HYDROCHLORIDE] |  |  |  |  |  | 0.04 | 1.32 | 0.42 | 0.12 |  | 42.6 | 39.5 | 11 | 0.01
CCCCCCCCCCC(SCC)c1cc(OC)c2c(c1OC)/C(=N/O)C=C/C2=N\O (stereo not given) | > 56.2 | 1.05 | > 50 | 0.89 | 1.87 |  |  |  |  |  |  |  |  | 
CCCCCCCCC(SC(=O)c1ccc(OC)c(OC)c1)c1cc(OC)c2c(c1OC)/C(=N/O)C=C/C2=N\O (stereo not given) | > 109 | 0.75 | > 50 | 0.46 | 0.95 | 10.9 | 0.74 | 13.1 | 1.3 | 10.5 | 0.96 | 2.63 | 0.57 | 4.97
CCCCCCCCC(SC(=O)c1cccs1)c1cc(OC)c2c(c1OC)/C(=N/O)C=C/C2=N\O (stereo not given) | > 41 | 0.95 | > 50 | 1.22 | 3.71 |  |  |  |  |  |  |  |  | 
CCCCCCCCCC(SCCC(C)C)c1cc(OC)c2c(c1OC)/C(=N/O)C=C/C2=N\O (stereo not given) | > 54.3 | 0.98 | > 50 | 0.92 | 1.54 |  |  |  |  |  |  |  |  | 
CCCCC(SCCC(C)C)c1cc(OC)c2c(c1OC)/C(=N/O)C=C/C2=N\O (stereo not given) | > 17.1 | 2.03 | > 50 | 2.92 | 5.96 |  |  |  |  |  |  |  |  | 
CCCCCCCCC(SCCCCCC)c1cc(OC)c2c(c1OC)/C(=N/O)C=C/C2=N\O (stereo not given) | > 46.3 | 1.14 | > 50 | 1.08 | 1.91 |  |  |  |  |  |  |  |  | 
CCCCCCCCCCC(SCCCCCC)c1cc(OC)c2c(c1OC)/C(=N/O)C=C/C2=N\O (stereo not given) | > 4.86 | 10.8 | > 50 | 10.3 | 18.5 |  |  |  |  |  |  |  |  | 
CCCCCCCCCCC(SC(=O)c1cc(OC)c(OC)c(OC)c1)c1cc(OC)c2c(c1OC)/C(=N/O)C=C/C2=N\O (stereo not given) | > 36 | 1.96 | > 50 | 1.39 | 4.66 |  |  |  |  |  |  |  |  | 
